Reference: patent US6429291B1, “Hyaluronan receptor protein” (priority 1994, dated 2002)

Tests used:
C3 fibroblasts = experiment: Cell locomotion assay, timelapse image analysis of C3 fibroblasts; format: cell-based, murine
Procedure: For motility experiments, 10^5 cells were subcultured into 25 cm^2 tissue culture flasks (Corning), and maintained for 12 h as above. The medium was then aspirated, cells were rinsed with Hanks Balanced Salt Solution (HBSS) (Gibco) and fresh, serum-free α-MEM containing 4.0 μg/ml transferrin (Gibco) and 2.0 μg/ml insulin (Sigma) (defined medium) was added to the flasks.
Cell locomotion was recorded using a computerized timelapse analysis system (Image 1, Universal Imaging Corporation, Westchester, Pa.) that measures nuclear displacement. During the filming period, cells were maintained at 37° C. in defined-media at physiological pH.
A 10 amino acid peptide corresponding to one of the HA binding domains of RHAMM, peptide^aa423-432 (Yang et al., 1993), was synthesised and added at various concentrations (0,0.1, 1.0, 5.0, 10.0 and 50.0 ng/ml) to 70% confluent C3 fibroblasts. Cell locomotion was monitored by image analysis for 2 h from the addition of the peptide. A scrambled peptide was used as control.
RHAMM-GST fusion protein prepared and purified as described in (b) above was added at concentrations of 1 pg/ml, 1 ng/ml, 1 μg/ml and 1 mg/ml to 70% confluent C3 cultures and cell locomotion was monitored by image analysis for 2 h from protein addition as described in Example 5.
For each experiment, 30 cells were tracked every 10 min for a 1 hr period.
RHAMM-GST fusion protein, as described in (d) above, and deleted/mutated RHAMM-GST fusion protein, as described in (h) above were added at 5 ng/ml to subconfluent cultures of C3 cells and cell locomotion was monitored by image analysis for 2 h from protein addition as described in Example 5.

[1] = HA binding transblot assay with biotinylated HA
Procedure: For the HA-binding assay, cell lysates were separated on SDS-PAGE, transblotted onto nitrocellulose membranes, then blots were incubated with biotinylated HA instead of primary antibody (Yang et al., 1993). Streptavidin-peroxidase conjugate (Sigma) was used as a second antibody, and blots were processed as above.

C3 cells [2] = experiment: Cell cycle analysis by flow cytometry; format: cell-based, murine; settings: serum starved, then serum stimulated; 5 μg/ml GST-RHAMM
Procedure: For cell cycle analysis, cells of the ras-transformed fibroblast cell line C3 were harvested and fixed with 70% ethanol. The fixed cells were denatured by 2N HCl containing 0.5% Triton X-100 at RT for 30 min and then neutralized by treatment with 0.1 M Na2B4O7, pH 8.5. Total DNA content was detected by propidium iodide staining. The stained cells were analyzed by flow cytometry using a Coulter Electronics Inc. EPICS 753 cell sorter and PARA1 cell cycle analysis software.

C3 cells [3] = experiment: Growth analysis (cell density assay); format: cell-based, murine
Procedure: Cell density assay was carried out by seeding 5×10^4 cells in 60 mm dishes. Cells were cultured in DMEM supplemented with 10% FCS. At each point, cells were harvested by trypsinization and cell concentrations were determined by counting cells by trypan blue exclusion method.

p34^cdc2 = experiment: Western blot of p34^cdc2 protein expression; format: cell-based, murine
Procedure: For Western blot analysis, C3 cells in 100 mm dishes were washed 2× in PBS and then lysed in 0.25 ml ice cold buffer containing 50 mM β-glycerophosphate (pH 7.3), 1% Nonidet p-40, 10 mM NaF, 1% aprotinin and 1 mM Sodium Vanadate. The lysates were centrifused at 30,000 g for 20 min at 4° C. Protein concentration was determined by Biorad protein assay kit. Proteins were resolved on 10% SDS-polyacrylamide gels and transferred to nitrocellulose membranes in a Tris-Cl buffer containing 25 mM Tris, 192 mM Glycine and 20% (v/v) methanol, pH 8.3 at 100V for 1 hour at 4° C. Filters were incubated with antibody to p34^cdc2 (1:5000 dilution of polyclonal rabbits antiserum raised against the C-terminal peptide (LDNQIKKM) (SEQ ID NO:58) of Human […] protein) and developed with horseradish peroxidase-conjugated goat antibody to rabbit immunoglobulin G (sigma). Blotting was visualized by enhanced chomilumineacence Western blotting system (Amersham) following manufacturer's instruction.

cdc2 mRNA = cdc2 mRNA Northern blot, nuclear run-on and mRNA stability; format: cell-based, murine; settings: actinomycin D 20 μg/ml for stability
Procedure: Total cellular RNA was extracted by a rapid RNA isolation method using Trizol reagent (GIBCO) as per manufacturer's instructions. For half-life measurements, transcription was inhibited by addition of 20 ug/ml actinomycin D. RNA was isolated at different times and analyzed for cdc2 gene expression. 20 ug of total cellular RNA was electrophoresed through 1% formamide-agarose gels and blotted onto Nytran membranes. The blots were prehybridized and probed with random primer 32p-labelled murine cdc2 cDNA (Paul Nurse). Loading of RNA was determined by probing with glyceraldehyde-3-phosphate dehyrogenase (GAPDH) cDNA. Autoradiography was done by Phosphoimager SF (Molecular Dynamics) using storage phosphor imaging.
Nuclear run-on assay was performed using 32P-labelled RNA to probe filter-bound cdc2 and GAPDH single strand cDNA inserts. Quantification of transcription was determined by scanning phosphor images using Multiquant software program (Molecular Dynamics).

C3 cells [4] = experiment: Tumorigenicity of treated C3 cells injected subcutaneously; format: in vivo, syngeneic C3H/HeN mice
Procedure: (§1) C3 cells were serum starved, then cultured in presence of serum and GST or GST-HM for 48-hours and released from the substratum in Hanks. For assessing the tumorigenicity of the treated cells, 3×10^5 viable cells were injected subcutaneously into the right hind leg of syngeneic C3H/HeN Mice. The mice were maintained for 6-8 weeks after which tumors were removed, weighed and pieces processed for histology using conventional paraffin embedding techniques. For experimental metastasis assays, 4×10^3 treated cells were injected into the tail vein of syngeneic C3H/HeN mice. The mice were maintained for 16-18 days, euthanased and their lungs were stained by Boulin solution (picric acid, formaldehyde and acetic acid [15:5.:1]), removed and metastatic foci were counted under dissecting microscope.

C3 cells [5] = experiment: Experimental metastasis assay of treated C3 cells (tail vein); format: in vivo, syngeneic C3H/HeN mice
Procedure: as §1, with “For experimental metastasis assays, 4×10^3 treated cells were injected into the tail vein of syngeneic C3H/HeN mice.” left out

[6] = treated cells that did form tumours

binding to biotinylated HA [1]: showed binding to biotinylated HA
Substance: RHAMM-GST fusion protein: RHAMM II cDNA cloned into pGEX-2T and expressed as soluble glutathione S-transferase-RHAMM fusion protein
concentration at which cell locomotion was significantly inhibited (C3 fibroblasts; 70% confluent C3, 2 h): ≥ 1 ng/mL
effect on cell locomotion (C3 fibroblasts; C3 fibroblasts, result in words): effective inhibitor of cell motility
reduction of locomotion (C3 fibroblasts; at 1 ng/ml, p<0.0001): 40%
reduction in locomotion (C3 fibroblasts; concentrations as low as 1 ng/ml): 3.5 fold
effect on cell cycle (C3 cells [2]): arrested and accumulated in G2/M phase
effect on cell proliferation (C3 cells [3]; 5 μg/ml GST-RHAMM): decrease in cell proliferation
fate of treated cells (C3 cells [3]; RHAMM-treated C3 cells): proceeded to cell death
p34^cdc2 expression (p34^cdc2; 10 μg/ml): greatly reduced
effect on p34^cdc2 expression (p34^cdc2; range of concentrations): dose dependent inhibition
effect on cdc2 mRNA (cdc2 mRNA): degradation of cdc2 mRNA without alteration of transcription
Tumorigenicity, Frequency (C3 cells [4]; C3 cells treated 48 hours before s.c. injection of 3 × 10^5 cells): 2/4
Tumorigenicity, Latency (C3 cells [4]; s.c. injection of 3 × 10^5 treated cells): 22 days
Tumorigenicity, Tumor size Day 25 (C3 cells [4]; s.c. injection of 3 × 10^5 treated cells, Day 25): 90 ± 0.7 mm²
latency compared to controls (C3 cells [4]; [6]): increased
ultimate tumour size compared to controls (C3 cells [4]; [6]): reduced
reduction of incidence of tumours (C3 cells [4]; treatment of C3 cells prior to inoculation): 50%
Expt. Metastases, Frequency (C3 cells [5]; i.v. injection of 4 × 10^5 treated cells): 3/4
Expt. Metastases, No. (C3 cells [5]; i.v. injection of 4 × 10^5 treated cells, lung foci): <10
metastatic capability of C3 cells (C3 cells [5]; pre-treatment of cells): greatly reduced the metastatic capability
